This is an account of results in US9328138B2 (priority 2011, dated 2016).

Test [1] deals with T1, HCV genotype 1b (BK) NS3 modified enzyme with a R155K mutation (Hepatitis C virus genotype 1b, UniProt P26663, R1181K).
T1 construct: HCV genotype 1b (BK) NS3 modified enzyme
Nature of the test: HCV NS3 protease time-resolved fluorescence (TRF) assay, genotype 1b R155K. The test is classed as biochemical. Conditions: Ki 1b R155K. The method, boiled down: (§1)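 Time-resolved fluorescence, ex 340/em 615 nm, 400 μs delay; IC50 by four-parameter fit. Enzyme preincubated with compound 10 min, then TRF substrate 25 nM final added and reaction run 6 h at RT. Buffer HEPES pH 7.5 with NaCl, glycerol, Triton X-100, DTT, PEG 8000.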

The target in test [2] is HCV NS3 protease genotype 3a (3A-1) (Hepatitis C virus genotype 3a, UniProt Q81258). The test can be described thus: HCV NS3 protease time-resolved fluorescence (TRF) assay, genotype 3a. In kind it is biochemical. To be noted: Ki 3a. The gist of the method: as §1
[3] abbreviates: first of two values printed in the cell (not explained).
Setting [4] is: second of two values printed in the cell (not explained).
Setting [5] is: genotype 1b (BK) NS3 R155K, single value.

Each structure is given as a SMILES string. pKi: −log10 of the molar value.

In general, pKi refers to the Ki on a negative log10 scale, so that one unit is a factor of ten. On to `C=C[C@@H]1CC1(NC(=O)[C@@H]1C[C@@H]2CN1C(=O)[C@H](C1CCOCC1)NC(=O)O[C@@H]1C[C@H]1CCCCCc1c(nc3ccccc3c1OC1CCN(C)CC1)O2)C(=O)NS(=O)(=O)C1(C)CC1` (stereo partly drawn) [Example 252, potassium {[(1R,2S)-2-ethenyl-1-({[(1aR,5S,8S,10R,22aR)-17-[(1-methylpiperidin-4-yl)oxy]-3,6-dioxo-5-(tetrahydro-2H-pyran-4-yl)-1,1a,3,4,5,6,9,10,18,19,20,21,22,22a-tetradecahydro-8H-7,10-methanocyclopropa[18,19][1,10,3,6]dioxadiazacyclononadecino[11,12-b]quinolin-8-yl]carbonyl}amino)cyclopropyl]carbonyl}[(1-methylcyclopropyl)sulfonyl]azanide], for which the results for the pKi in test [1] (setting [3]), in test [1] (setting [4]) and in test [2] were 11.05, 10.66 and 10.06, respectively.
Take `CC1(S(=O)(=O)NC(=O)[C@@]23C[C@H]2/C=C\CCCCC[C@@H]2NC(=O)O[C@@H]4C[C@H]4CCCCCc4c(nc5ccccc5c4OCCN4CCCC4)O[C@@H]4C[C@@H](C(=O)N3)N(C4)C2=O)CC1` [Example 306, (1aR,5S,11Z,12aS,13aR,16S,19R,31aR)—N-[(1-methylcyclopropyl)sulfonyl]-3,15,33-trioxo-26-[2-(pyrrolidin-1-yl)ethoxy]-1,1a,3,4,5,6,7,8,9,10,12a,13,15,16,18,19,27,28,29,30,31,31a-docosahydro-5,17:16,19-dimethanodicyclopropa[12,13:28,29][1,20,3,14,17]dioxatriazacyclononacosino[21,22-b]quinoline-13a(14H)-carboxamide]: the pKi in test [1] (setting [5]) was 10.08; in test [2], 9.14.
For `C=C[C@@H]1C[C@]1(NC(=O)[C@@H]1C[C@@H]2CN1C(=O)[C@H](C1CCCC1)NC(=O)O[C@@H]1CCC[C@H]1CC/C=C/Cc1c(nc3ccccc3c1OCc1ccccc1)O2)C(=O)NS(=O)(=O)C1(C)CC1` [Example 15, (3aR,7S,10S,12R,21E,24aS)-19-(benzyloxy)-7-cyclopentyl-N-[(1H,2S)-2-ethenyl-1-{[(1-methylcyclopropyl)sulfonyl]carbamoyl}cyclopropyl]-5,8-dioxo-1,2,3,3a,5,6,7,8,11,12,20,23,24,24a-tetradecahydro-10H-9,12-methanocyclopenta[18,19] [1,10,3,6]dioxadiazacyclononadecino[11,12-b] quinoline-10-carboxamide], the pKi in test [1] (setting [5]) is 9.09; in test [2], 7.44.
On the same counts, the results for `C=C[C@@H]1C[C@]1(NC(=O)[C@@H]1C[C@@H]2CN1C(=O)[C@H](C1CCCCC1)NC(=O)O[C@@H]1C[C@H]1CCCCCc1c(nc3c(OC)cccc3c1OCCN1CCOCC1)O2)C(=O)NS(=O)(=O)C1(C)CC1` [Example 128, (1aR,5S,8S,10R,22aR)-5-cyclohexyl-N-[(1R,2S)-2-ethenyl-1-{[(1-methylcyclopropyl)sulfonyl]carbamoyl}cyclopropyl]-13-methoxy-17-[2-(morpholin-4-yl)ethoxy]-3,6-dioxo-1,1a,3,4,5,6,9, 10,18,19,20,21,22,22a-tetradecahydro-8H-7,10-methanocyclopropa [18,19][1,10,3,6]dioxadiaza cyclononadecino[11,12-b]quinoline-8-carboxamide] are 9.39 and 7.89.
In the same order, the values of `C=C[C@@H]1C[C@]1(NC(=O)[C@@H]1C[C@@H]2CN1C(=O)[C@H](C(C)(C)C)NC(=O)O[C@@H]1C[C@H]1CCCCCc1c(nc3c(F)cccc3c1OCCN1CCOCC1)O2)C(=O)NS(=O)(=O)C1(C)CC1` [Example 126, (1aR,5S,8S,10R,22aR)-5-tert-butyl-N-[(1R,2S)-2-ethenyl-1-{[(1-methylcyclopropyl)sulfonyl]carbamoyl}cyclopropyl]-13-fluoro-17-[2-(morpholin-4-yl)ethoxy]-3,6-dioxo-1,1a,3,4,5,6,9,10,18,19, 20,21,22,22a-tetradecahydro-8H-7,10-methanocyclopropa[18,19][1,10,3,6] dioxadiazacyclononadecino[11,12-b] quinoline-8-carboxamide] are 9.40 and 8.11.
Take `C=C[C@@H]1C[C@]1(NC(=O)[C@@H]1C[C@@H]2CN1C(=O)[C@H](C(C)(C)C)NC(=O)O[C@@H]1C[C@H]1CCCCCc1c(nc3ccccc3c1OCCN(C)c1ccccc1)O2)C(=O)NS(=O)(=O)C1(C)CC1` [Example 130, (1aR,5S,8S,10R,22aR)-5-tert-butyl-N-[(1R,2S)-2-ethenyl-1-{[(1-methylcyclopropyl)sulfonyl]carbamoyl}cyclopropyl]-17-{2-[methyl(phenyl)amino]ethoxy}-3,6-dioxo-1,1a,3,4,5,6,9,10,18,19, cyclopropa[18,19][1,10,3,6] dioxadiazacyclononadecino [11,12-b]quinoline-8-carboxamide]: the pKi in test [1] (setting [5]) is 8.66; in test [2], 7.74.
As to `C=C[C@@H]1C[C@]1(NC(=O)[C@@H]1C[C@@H]2CN1C(=O)[C@H](C(C)(C)C)NC(=O)O[C@@H]1C[C@H]1CCCCCc1c(nc3ccccc3c1-c1ccccn1)O2)C(=O)NS(=O)(=O)C1(C)CC1` [Example 245, (1aR,5S,8S,10R,22aR)-5-tert-butyl-N-[(1R,2S)-2-ethenyl-1-{[(1-methylcyclopropyl)sulfonyl]carbamoyl}cyclopropyl]-3,6-dioxo-17-(pyridin-2-yl)-1,1a,3,4,5,6,9,10,18,19,20,21,22,22a-tetradecahydro-8H-7,10-methanocyclopropa[18,19][1,10,3,6]dioxadiazacyclononadecino[11,12-b]quinoline-8-carboxamide], the pKi is 9.26 in test [1] (setting [3]), 8.85 in test [1] (setting [4]) and 6.89 in test [2].
Take `C=C[C@@H]1C[C@]1(NC(=O)[C@@H]1C[C@@H]2CN1C(=O)[C@H](C(C)(C)C)NC(=O)O[C@@H]1C[C@H]1CCCCCc1c(nc3cc(C)ccc3c1OCCCN1CCCC1)O2)C(=O)NS(=O)(=O)C1(C)CC1` [Example 146, (1aR,5S,8S,10R,22aR)-5-tert-butyl-N-[(1R,2S)-2-ethenyl-1-{[(1-methylcyclopropyl)sulfonyl]carbamoyl}cyclopropyl]-14-methyl-3,6-dioxo-17-[3-(pyrrolidin-1-yl)propoxy]-1,1a,3,4,5,6,9,10,18, 19,20,21,22,22a-tetradecahydro-8H-7,10-methano cyclopropa[18,19][1,10,3,6] dioxadiazacyclonona decino[11,12-b]quinoline-8-carboxamide]: the pKi in test [1] (setting [5]) is 10.27; in test [2] it was 9.17.
In the same order, the values of `CC1(S(=O)(=O)NC(=O)[C@@]23C[C@H]2/C=C\CCCCC[C@@H]2NC(=O)O[C@@H]4C[C@H]4CCCCCc4c(nc5ccccc5c4OCCN4CCOCC4)O[C@@H]4C[C@@H](C(=O)N3)N(C4)C2=O)CC1` [Example 301, (1aR,5S,11Z,12aS,13aR,16S,19R,31aR)—N-[(1-methylcyclopropyl)sulfonyl]-26-[2-(morpholin-4-yl)ethoxy]-3,15,33-trioxo-1,1a,3,4,5,6,7,8,9,10,12a,13,15,16,18,19,27,28,29,30,31,31a-docosahydro-5,17:16,19-dimethanodicyclopropa[12,13:28,29][1,20,3,14,17]dioxatriazacyclononacosino[21,22-b]quinoline-13a(14H)-carboxamide] are 9.46 and 8.23.
On the same counts, the results for `CC[C@@H]1C[C@]1(NC(=O)[C@@H]1C[C@@H]2CN1C(=O)[C@H](C1CCCC1)NC(=O)O[C@@]1(C)CCC[C@@H]1CCCCCc1c(nc3ccccc3c1O)O2)C(=O)NS(=O)(=O)C1CC1` [Example 31, (3aS,7S,10S,12R,24aS)-7-cyclopentyl-N-{(1R,2R)-1-[(cyclopropylsulfonyl)carbamoyl]-2-ethylcyclopropyl}-19-hydroxy-3a-methyl-5,8-dioxo-1,2,3-3a,5,6,7,8,11,12,20,21,22,23,24,24a-hexadeca hydro-10H-9,12-methanocyclopenta[18,19] [1,10,3,6]dioxadiazacyclononadecino[11,12-b] quinoline-10-carboxamide] are 8.39 and 7.64.
Consider `C=C[C@@H]1C[C@]1(NC(=O)[C@@H]1C[C@@H]2CN1C(=O)[C@H](C(C)(C)C)NC(=O)O[C@@H]1CCC[C@H]1CCCCCc1c(nc3ccccc3c1O)O2)C(=O)NS(=O)(=O)C1(COC)CC1` [Example 35, (3aR,7S,10S,12R,24aR)-7-tert-butyl-N-[(1R,2S)-2-ethenyl-1-({[1-(methoxymethyl)cyclopropyl]sulfonyl}carbamoyl)cyclopropyl]-19-hydroxy-5,8-dioxo-1,2,3,3a,5,6,7,8,11,12, 20,21,22,23,24,24a-hexadecahydro-10H-9,12-methanocyclopenta[18,19][1,10,3,6] dioxadiazacyclononadecino[11,12-b]quinoline-10-carboxamide], for which the pKi is 9.82 in test [1] (setting [5]) and 8.70 in test [2].
In the same order, the values of `C=C[C@@H]1C[C@]1(NC(=O)[C@@H]1C[C@@H]2CN1C(=O)[C@H](C(C)(C)C)NC(=O)O[C@@H]1CCC[C@H]1CCCCCc1c(nc3ccccc3c1OCCN1CCOCC1)O2)C(=O)NS(=O)(=O)N1CCOCC1` [Example 112, (3aR,7S,10S,12R,24aR)-7-tert-butyl-N-{(1R,2S)-2-ethenyl-1-[(morpholin-4-ylsulfonyl)carbamoyl]cylcopropyl}-19-[2-(morpholin-4-yl)ethoxy]-5,8-dioxo-1,2,3,3a,5,6,7,8,11,12,20,21,22,23,24,24a-hexadecahydro-10H-9,12-methanocyclopenta[18,19] [1,10,3,6] dioxadiazacyclononadecino [11,12-b]quinoline-10-carboxamide] are 7.62 and 6.21.
